Earlier results in patent US7745108B2, “Method for identifying terpene synthase” (The Regents of the University of California, priority 2003, dated 2010).

Assays:
[1] = biological target: T1, taxadiene synthase (Taxus brevifolia, UniProt Q41594)
T1 sequence (Q41594 61-862 limits assumed): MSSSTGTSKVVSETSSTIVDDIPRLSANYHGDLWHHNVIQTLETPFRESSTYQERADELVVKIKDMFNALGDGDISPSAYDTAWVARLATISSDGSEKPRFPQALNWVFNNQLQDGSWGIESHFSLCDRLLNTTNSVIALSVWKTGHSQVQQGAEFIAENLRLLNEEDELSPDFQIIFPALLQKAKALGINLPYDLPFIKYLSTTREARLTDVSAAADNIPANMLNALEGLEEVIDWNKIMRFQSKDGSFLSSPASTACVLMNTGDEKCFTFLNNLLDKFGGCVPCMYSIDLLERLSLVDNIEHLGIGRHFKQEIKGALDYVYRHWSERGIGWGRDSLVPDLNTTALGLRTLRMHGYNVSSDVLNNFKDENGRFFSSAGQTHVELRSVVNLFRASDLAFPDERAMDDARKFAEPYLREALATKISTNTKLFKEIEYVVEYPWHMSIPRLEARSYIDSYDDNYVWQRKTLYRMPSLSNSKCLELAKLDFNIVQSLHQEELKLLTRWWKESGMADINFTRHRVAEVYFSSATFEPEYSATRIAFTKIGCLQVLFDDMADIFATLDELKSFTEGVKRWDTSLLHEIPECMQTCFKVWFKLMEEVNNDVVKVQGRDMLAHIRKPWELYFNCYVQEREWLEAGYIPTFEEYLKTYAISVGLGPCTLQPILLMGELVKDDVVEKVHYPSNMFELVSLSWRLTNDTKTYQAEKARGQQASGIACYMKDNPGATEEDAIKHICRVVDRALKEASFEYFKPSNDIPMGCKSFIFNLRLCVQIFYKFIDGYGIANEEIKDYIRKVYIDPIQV

[2] = tested on: monoterpene synthases; settings: all twelve monoterpene synthases tested

Row | Substance | covalent modification and inhibition of taxadiene synthase [1] | sensitivity of monoterpene synthases to the inhibitor [2]
1 | cyclopropylidene geranylgeranyl diphosphate [CP-GGPP] | unsuccessful in covalently modifying and inhibiting | –
2 | cyclopropylidene geranyl diphosphate [CP-GPP] | – | sensitive
